Reference: ChEMBL document CHEMBL1201862, “PubChem BioAssay data set” (2004)
Calls of active or inactive are those of the source.

Assays:
[1] = target: T1, High affinity choline transporter 1 (Homo sapiens, UniProt Q9GZV3); experiment: human choline transporter blockers, potency – cell-based, 5-point CRC, membrane potential dye, dose response (AID 504840); type: functional
T1 sequence (Q9GZV3 whole entry): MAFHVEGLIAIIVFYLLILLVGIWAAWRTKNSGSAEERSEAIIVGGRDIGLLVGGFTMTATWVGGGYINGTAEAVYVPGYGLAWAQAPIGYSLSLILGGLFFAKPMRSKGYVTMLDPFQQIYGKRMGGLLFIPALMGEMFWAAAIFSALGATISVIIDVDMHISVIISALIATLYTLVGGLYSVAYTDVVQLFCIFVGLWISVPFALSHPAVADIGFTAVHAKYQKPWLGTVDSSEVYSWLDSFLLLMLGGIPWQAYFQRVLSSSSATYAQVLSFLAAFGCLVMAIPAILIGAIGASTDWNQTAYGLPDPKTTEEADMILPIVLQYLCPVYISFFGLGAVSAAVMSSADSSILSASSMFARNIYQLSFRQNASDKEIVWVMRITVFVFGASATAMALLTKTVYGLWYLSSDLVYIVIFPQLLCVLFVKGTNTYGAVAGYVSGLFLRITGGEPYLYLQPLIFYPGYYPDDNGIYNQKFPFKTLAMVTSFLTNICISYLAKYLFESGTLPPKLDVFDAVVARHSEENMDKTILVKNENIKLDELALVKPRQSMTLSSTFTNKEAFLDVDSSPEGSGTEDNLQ

[2] = tested on: H9c2; experiment: cells; type: functional, cell-based; details: Rattus norvegicus, H9c2, Myocardium;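 also: confirmatory concentration-response retest of ultra-high-throughput screening hits for modulation of myocardial damage; cell death induced by hydrogen peroxide oxidative stress; compound pretreatment for 60 min then peroxide exposure for 2 h; potency is for protecting the cells against peroxide damage rather than for killing them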
[3] = target: T2, Ubiquitin-conjugating enzyme E2 N (Homo sapiens, UniProt P61088); type: functional;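 also: Dose-response confirmation in a TR-FRET assay detecting UBC13-driven polyubiquitin chain formation, inhibition measured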
T2 sequence (P61088 whole entry): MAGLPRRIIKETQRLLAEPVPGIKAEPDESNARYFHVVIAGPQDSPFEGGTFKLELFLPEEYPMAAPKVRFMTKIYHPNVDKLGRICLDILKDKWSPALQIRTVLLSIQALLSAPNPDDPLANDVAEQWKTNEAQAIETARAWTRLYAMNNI

[4] = target: T3, Short transient receptor potential channel 4 (Mus musculus, UniProt Q9QUQ5); experiment: block of DAMGO-driven TRPC4 calcium entry – cell-based, HEK293 TRPC4/mu-opioid, Fluo-4 calcium, dose response (AID 434942); type: functional;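 also: potency of inhibitors blocking the TRPC4 calcium response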
T3 sequence (Q9QUQ5 whole entry): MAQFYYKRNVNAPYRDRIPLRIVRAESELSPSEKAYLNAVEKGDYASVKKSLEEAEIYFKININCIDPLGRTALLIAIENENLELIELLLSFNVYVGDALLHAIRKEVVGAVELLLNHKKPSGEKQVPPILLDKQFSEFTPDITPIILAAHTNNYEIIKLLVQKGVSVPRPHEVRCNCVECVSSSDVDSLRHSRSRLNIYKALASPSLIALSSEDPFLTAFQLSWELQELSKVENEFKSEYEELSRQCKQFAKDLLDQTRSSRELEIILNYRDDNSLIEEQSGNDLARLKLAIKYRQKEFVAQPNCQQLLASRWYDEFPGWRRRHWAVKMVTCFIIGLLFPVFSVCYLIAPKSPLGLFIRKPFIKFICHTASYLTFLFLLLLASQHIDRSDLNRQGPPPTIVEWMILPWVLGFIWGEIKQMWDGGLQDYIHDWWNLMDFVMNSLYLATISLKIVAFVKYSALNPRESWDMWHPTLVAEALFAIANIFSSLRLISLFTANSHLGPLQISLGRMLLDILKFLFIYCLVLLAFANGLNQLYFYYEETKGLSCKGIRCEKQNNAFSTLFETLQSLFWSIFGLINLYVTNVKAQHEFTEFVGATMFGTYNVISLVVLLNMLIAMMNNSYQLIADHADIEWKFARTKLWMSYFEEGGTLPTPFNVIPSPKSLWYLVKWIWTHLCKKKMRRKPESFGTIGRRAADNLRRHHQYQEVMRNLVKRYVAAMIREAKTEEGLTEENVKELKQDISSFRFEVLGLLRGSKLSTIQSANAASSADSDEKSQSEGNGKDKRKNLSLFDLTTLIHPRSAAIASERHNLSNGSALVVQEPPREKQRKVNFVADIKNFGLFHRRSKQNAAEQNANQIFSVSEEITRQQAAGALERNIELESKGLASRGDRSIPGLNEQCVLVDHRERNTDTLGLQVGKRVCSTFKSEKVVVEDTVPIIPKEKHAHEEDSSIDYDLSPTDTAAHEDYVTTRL

[5] = target: T4, Carboxy-terminal domain RNA polymerase II polypeptide A small phosphatase 1 (Homo sapiens, UniProt Q9GZU7); experiment: CTDSP1 inhibitors, concentration-response, biochemical, absorbance readout, ultra-high-throughput screen actives (AID 540297); type: functional
T4 sequence (Q9GZU7 whole entry): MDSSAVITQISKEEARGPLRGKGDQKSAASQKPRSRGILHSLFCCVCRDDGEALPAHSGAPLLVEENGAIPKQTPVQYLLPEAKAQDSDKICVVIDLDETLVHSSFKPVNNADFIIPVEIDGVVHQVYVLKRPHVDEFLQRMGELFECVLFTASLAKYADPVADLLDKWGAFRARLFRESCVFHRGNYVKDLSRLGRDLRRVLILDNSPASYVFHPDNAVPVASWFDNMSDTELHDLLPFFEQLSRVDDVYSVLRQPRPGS

[6] = viability of PTEN-deleted HCT116 cells – cell-based, HCT116 PTEN knockout, dose response (AID 1047); type: functional;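 also: HCT116 colon tumor cells with PTEN knocked out; cells exposed to compound for 60 hours before readout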
[7] = viability of HCT116 lacking mutant beta-catenin – cell-based, human colon tumor, dose response (AID 1045); type: functional;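 also: HCT116 colon tumor cells with beta catenin knocked out; cells exposed to compound for 60 hours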
[8] = target: Induced myeloid leukemia cell differentiation protein Mcl-1 (Homo sapiens, UniProt Q07820); type: functional
Induced myeloid leukemia cell differentiation protein Mcl-1, sequence (Q07820 whole entry): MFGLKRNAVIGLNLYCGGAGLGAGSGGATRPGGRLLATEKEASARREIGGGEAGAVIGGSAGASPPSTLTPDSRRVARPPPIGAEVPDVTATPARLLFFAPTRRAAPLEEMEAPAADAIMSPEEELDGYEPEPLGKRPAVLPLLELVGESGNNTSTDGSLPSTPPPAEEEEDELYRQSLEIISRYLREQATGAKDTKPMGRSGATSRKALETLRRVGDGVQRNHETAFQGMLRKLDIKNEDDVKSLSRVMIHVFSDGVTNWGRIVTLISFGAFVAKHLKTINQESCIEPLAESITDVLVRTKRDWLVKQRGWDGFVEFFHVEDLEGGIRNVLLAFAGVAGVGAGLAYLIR

[9] = target: T5, DNA repair and recombination protein RAD54-like (Homo sapiens, UniProt Q92698); experiment: RAD54 Holliday junction migration blockers – biochemical, fluorescence, cherry-picked samples, dose series, confirmation (AID 651657); type: functional
T5 sequence (Q92698 whole entry): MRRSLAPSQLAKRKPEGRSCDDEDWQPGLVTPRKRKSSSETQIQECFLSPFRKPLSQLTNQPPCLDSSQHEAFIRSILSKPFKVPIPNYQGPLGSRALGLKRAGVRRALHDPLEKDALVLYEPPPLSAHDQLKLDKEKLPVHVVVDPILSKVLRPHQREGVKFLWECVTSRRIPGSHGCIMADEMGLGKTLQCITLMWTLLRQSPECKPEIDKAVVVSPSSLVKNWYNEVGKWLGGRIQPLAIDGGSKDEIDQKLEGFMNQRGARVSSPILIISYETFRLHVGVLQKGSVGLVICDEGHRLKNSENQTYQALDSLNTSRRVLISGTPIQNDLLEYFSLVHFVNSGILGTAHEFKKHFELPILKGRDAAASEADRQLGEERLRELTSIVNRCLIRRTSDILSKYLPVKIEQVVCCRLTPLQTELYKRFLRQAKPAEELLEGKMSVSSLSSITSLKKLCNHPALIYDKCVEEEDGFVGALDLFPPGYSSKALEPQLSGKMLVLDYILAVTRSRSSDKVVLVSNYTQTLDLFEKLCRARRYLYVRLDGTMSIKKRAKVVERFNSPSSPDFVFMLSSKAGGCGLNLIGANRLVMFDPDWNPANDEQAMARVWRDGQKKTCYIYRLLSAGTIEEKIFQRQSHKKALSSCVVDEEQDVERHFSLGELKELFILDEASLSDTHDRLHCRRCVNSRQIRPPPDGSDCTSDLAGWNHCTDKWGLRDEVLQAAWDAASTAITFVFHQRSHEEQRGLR

[10] = tested on: Vero; experiment: cells; type: functional; details: Chlorocebus sabaeus
[11] = blockers of HIV-1 envelope-mediated cell-cell fusion – cherry-pick, dose response (AID 652057); type: functional, cell-based
[12] = blockers of HIV-1 ZM109 envelope-driven cell-cell fusion – HeLa effector, CEM target cells, luciferase, cherry-pick, dose response (AID 652058); type: functional, cell-based;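 also: luciferase signal from HIV-1 Env mediated cell-cell fusion of effector and target cells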
[13] = off-target signal loss in HeLa-CEM21 co-culture – HeLa F-luc CTL cells, cherry-picked, counter-screen for HIV-1 Env fusion inhibitor project, dose response (AID 652040); type: functional, cell-based;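 also: potency for signal decrease marking cytotoxic or nonspecific inhibition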
[14] = HIV-1 AD8 envelope cell-cell fusion blockers – cherry-pick, dose response (AID 652062); type: functional, cell-based;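 also: luciferase signal from cell-cell fusion driven by HIV-1 clade B AD8 Env; potency is for inhibitors of fusion seen as a drop in luminescence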
[15] = tested on: CHO; experiment: CHO cell viability loss, potency – luminescence, cytotoxicity control for TLR9-MyD88 binding inhibitor project, dose response (AID 588339); type: functional, cell-based, hamster; details: Cricetulus griseus;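 also: CHO cells stably coexpressing TLR9 and MyD88 fusions from primary screen; compound exposure lasted 48 hours before viability readout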
[16] = cells; type: functional
[17] = target: T6, Fatty acid synthase (Homo sapiens, UniProt P49327); experiment: inhibition of human FAS-TE enzyme activity – biochemical, endpoint fluorescence intensity, uHTS hits, dose response (AID 624327); type: functional;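 also: fluorescence from hydrolysis of an O-methyl fluorescein acyl ester substrate by the enzyme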
T6 sequence (P49327 whole entry): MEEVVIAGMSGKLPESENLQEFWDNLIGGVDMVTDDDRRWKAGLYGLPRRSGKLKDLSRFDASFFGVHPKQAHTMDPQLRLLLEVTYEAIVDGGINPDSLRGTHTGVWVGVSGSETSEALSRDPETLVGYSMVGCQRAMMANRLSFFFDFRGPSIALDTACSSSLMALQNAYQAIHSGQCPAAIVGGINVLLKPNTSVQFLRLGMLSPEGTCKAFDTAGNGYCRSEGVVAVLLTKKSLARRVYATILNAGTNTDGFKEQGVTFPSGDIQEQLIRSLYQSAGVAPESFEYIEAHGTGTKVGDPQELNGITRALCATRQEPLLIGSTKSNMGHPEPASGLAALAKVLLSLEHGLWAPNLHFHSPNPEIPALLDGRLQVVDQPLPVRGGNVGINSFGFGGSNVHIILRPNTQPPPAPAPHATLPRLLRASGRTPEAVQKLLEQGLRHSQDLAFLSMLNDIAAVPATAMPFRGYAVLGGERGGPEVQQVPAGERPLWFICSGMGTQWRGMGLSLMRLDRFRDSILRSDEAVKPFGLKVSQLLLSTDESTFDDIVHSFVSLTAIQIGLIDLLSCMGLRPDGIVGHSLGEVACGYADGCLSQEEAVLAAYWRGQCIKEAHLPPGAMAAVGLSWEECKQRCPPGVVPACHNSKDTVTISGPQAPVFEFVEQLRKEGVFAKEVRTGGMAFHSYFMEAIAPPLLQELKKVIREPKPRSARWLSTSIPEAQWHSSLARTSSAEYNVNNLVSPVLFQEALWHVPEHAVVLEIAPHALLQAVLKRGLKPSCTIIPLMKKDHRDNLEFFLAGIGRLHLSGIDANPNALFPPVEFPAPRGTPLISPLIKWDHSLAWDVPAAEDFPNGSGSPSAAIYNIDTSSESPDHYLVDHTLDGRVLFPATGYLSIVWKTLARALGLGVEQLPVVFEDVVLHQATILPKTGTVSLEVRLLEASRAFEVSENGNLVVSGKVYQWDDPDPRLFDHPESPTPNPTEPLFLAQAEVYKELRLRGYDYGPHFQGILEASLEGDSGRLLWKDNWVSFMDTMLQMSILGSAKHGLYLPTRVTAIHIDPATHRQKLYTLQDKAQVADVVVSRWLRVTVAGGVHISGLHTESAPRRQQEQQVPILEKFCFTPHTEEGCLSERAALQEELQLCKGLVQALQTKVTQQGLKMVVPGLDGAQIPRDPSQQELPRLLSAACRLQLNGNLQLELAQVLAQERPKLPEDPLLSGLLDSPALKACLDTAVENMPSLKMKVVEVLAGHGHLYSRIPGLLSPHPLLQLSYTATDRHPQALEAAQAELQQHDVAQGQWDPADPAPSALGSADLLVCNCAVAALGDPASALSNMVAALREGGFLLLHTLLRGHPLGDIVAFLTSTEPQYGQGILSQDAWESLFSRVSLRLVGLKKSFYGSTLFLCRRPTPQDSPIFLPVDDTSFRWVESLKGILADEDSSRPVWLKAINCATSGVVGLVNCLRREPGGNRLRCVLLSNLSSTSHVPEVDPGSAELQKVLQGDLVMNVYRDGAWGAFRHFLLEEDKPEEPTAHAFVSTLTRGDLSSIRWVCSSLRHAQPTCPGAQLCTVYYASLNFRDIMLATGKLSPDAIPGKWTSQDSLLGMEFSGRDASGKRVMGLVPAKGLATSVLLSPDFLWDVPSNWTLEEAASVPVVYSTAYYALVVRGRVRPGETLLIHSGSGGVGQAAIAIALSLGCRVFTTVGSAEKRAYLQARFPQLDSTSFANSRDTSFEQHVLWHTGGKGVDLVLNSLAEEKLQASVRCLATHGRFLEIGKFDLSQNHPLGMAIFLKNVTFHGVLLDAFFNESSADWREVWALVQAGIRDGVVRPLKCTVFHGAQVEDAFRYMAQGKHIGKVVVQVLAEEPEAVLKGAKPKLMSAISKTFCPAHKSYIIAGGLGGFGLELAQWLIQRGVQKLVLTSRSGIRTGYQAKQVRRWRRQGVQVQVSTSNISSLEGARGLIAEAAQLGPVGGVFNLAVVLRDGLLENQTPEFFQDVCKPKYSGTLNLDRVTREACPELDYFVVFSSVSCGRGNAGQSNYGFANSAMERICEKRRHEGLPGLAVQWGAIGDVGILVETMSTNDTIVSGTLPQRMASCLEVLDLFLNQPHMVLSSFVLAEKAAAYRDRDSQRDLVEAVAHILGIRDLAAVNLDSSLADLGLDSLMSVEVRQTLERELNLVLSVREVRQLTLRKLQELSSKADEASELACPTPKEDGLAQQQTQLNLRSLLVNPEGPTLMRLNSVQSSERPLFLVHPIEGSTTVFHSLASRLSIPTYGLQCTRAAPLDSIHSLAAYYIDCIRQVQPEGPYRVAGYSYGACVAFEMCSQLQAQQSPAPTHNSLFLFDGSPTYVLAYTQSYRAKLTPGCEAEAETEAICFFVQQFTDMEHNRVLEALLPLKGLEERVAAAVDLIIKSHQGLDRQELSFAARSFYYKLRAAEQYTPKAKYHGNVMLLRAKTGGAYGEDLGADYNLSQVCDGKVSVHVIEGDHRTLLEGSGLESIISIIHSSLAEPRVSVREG

[18] = target: T6, Fatty acid synthase; experiment: inhibition of human FAS-TE enzyme activity – biochemical, kinetic fluorescence intensity, dose response (AID 624326); type: functional;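 also: rate of fluorescence rise from hydrolysis of a fluorogenic O-methyl fluorescein ester substrate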
[19] = tested on: HEK293; experiment: EBV LMP1 TES2 canonical NF-kB signalling blockers – cell-based, HEK293, luciferase, cherry-pick, dose response (AID 588343); type: functional; details: Homo sapiens
[20] = target: Paired box protein Pax-8 (Homo sapiens, UniProt Q06710); experiment: PAX8 transcriptional activity inhibition in RMG-I – RMG-I cells, luciferase, cherry-pick, dose response (AID 687027); type: functional, cell-based;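 also: luciferase reporter driven by Pax8 target thyroperoxidase promoter measured by SteadyGlo luminescence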
Paired box protein Pax-8, sequence (Q06710 whole entry): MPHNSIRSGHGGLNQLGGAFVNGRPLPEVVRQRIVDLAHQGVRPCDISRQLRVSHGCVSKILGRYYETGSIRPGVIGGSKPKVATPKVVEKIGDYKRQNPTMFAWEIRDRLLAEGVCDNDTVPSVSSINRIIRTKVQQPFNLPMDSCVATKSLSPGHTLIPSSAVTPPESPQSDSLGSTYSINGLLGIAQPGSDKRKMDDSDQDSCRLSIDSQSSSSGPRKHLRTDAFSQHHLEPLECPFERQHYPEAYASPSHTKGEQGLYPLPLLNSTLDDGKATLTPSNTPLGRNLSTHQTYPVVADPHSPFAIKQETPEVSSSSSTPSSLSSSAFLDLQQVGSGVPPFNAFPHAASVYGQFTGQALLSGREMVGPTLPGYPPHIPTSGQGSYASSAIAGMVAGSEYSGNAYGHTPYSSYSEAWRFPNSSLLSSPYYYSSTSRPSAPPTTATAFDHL

COc1cc(NC(=O)c2csc(-c3ccncc3)n2)cc(C(=O)Nc2cccc(C(F)(F)F)c2)c1
IC50 [1]: 6.44 µM (active) | IC50 [2]: > 79 µM (inactive)

O=C1c2cccc3cccc(c23)C(=O)N1CCN1CCN(CC(O)COc2ccccc2)CC1 (configuration not stated)
IC50 [3]: > 20 µM (inactive)

COC(=O)c1cccc(NC(S)=Nc2cccc(Cl)c2Cl)c1
EC50 [4]: 8.41 µM (active)

CC(=O)N(c1ccc(Cl)cc1)c1c[nH]c2ccccc12
EC50 [4]: 18.8 µM (active)

Cc1ccc(O)c(C(=O)c2cnn(C(=O)COc3ccc(Cl)cc3)c2)c1
IC50 [5]: 3.89 µM (active)

CN(CCNC(=O)CCCOc1cc(=O)n(C)c2ccccc12)Cc1ccccc1
IC50 [3]: > 20 µM (inactive)

O=C(COC(=O)c1ccccc1NCCO)Nc1cccc(S(=O)(=O)NC2=NCCCCC2)c1
IC50 [5]: 10.2 µM (active)

COc1cccc(C(=O)Nc2ccc3nc(N4CCN(c5ncccn5)CC4)cc(C)c3c2)c1OC
EC50 [6]: 5.74 µM (active) | EC50 [7]: 6.95 µM (active) | IC50 [8]: 5.6 µM (active)

CN1CCN(c2cc(N3CCNCC3)ccc2[N+](=O)[O-])CC1
AC50 [9]: 14.5 µM (active)

O=C(C[n+]1cc(Br)cc2ccccc21)c1ccc(Br)cc1
IC50 [1]: 11.4 µM (active)

CC(c1ccccc1)n1c(-c2cccs2)nc2c(c(=O)c3ccccc3n2C)c1=O (configuration not stated)
CC50 [10]: > 25 µM (active)

CCN(CC)CCCNc1nc(-c2ccccc2)nc2ccccc12
AC50 [9]: 13 µM (active)

Cc1cc(SCc2cc(=O)n3ccsc3n2)nc2ccccc12
IC50 [1]: 13.2 µM (active)

Clc1ccc(-c2csc3ncnc(NCCN4CCOCC4)c23)cc1
EC50 [4]: 3.35 µM (active) | AC50 [11]: 3.74 µM (active) | AC50 [12]: 2.24 µM (active) | AC50 [13]: > 70 µM (inactive) | AC50 [14]: 18.1 µM (active)

O=C(O)c1[nH]c2ccc(Cl)cc2c1CC(=O)N1CCN(c2ccccc2)CC1
IC50 [1]: 13.2 µM (active)

COc1ccc(N(C(=O)c2snc(C(N)=O)c2N)C(C(=O)NC2CCCC2)c2ccc3ncccc3c2)cc1 (configuration not stated)
IC50 [3]: > 20 µM (inactive)

COc1ccc(NC(=O)CSc2nc3ccsc3c(=O)n2CCCCCC(=O)O)cc1
IC50 [3]: > 20 µM (inactive)

CC1CCN(CCCNC(=O)c2ccc3c(Cl)c4c(nc3c2)CCCC4)CC1
CC50 [10]: > 25 µM (active)

CS(=O)(=O)c1sc2nc(-c3ccccc3)cc(-c3ccccc3)c2c1N
IC50 [15]: > 49.8 µM (inactive)

O=C(OCC(=O)N1CCc2ccccc2C1)c1cccc([N+](=O)[O-])c1
EC50 [4]: 2.37 µM (active) | IC50 [16]: 23.1 µM (active) | IC50 [17]: 9.14 µM (active) | IC50 [18]: 10.9 µM (active)

CCN(CC)S(=O)(=O)c1ccc(C(=O)OCC(=O)NCc2ccco2)cc1
IC50 [5]: 11.1 µM (active)

CCCC(C(=O)NC(C)(C)C)N(CC1CCCO1)C(=O)c1snc(C(N)=O)c1N (configuration not stated)
IC50 [3]: > 20 µM (inactive)

CC1=C(C(=O)OCCOc2ccccc2)C(c2ccsc2)NC(=O)N1C (configuration not stated)
IC50 [1]: 13.2 µM (active)

Cc1cc2[nH]c3ccccc3c2c(C)n1
EC50 [4]: 1.68 µM (active)

COCCN(C(=O)Cn1nnc2ccccc21)C(C(=O)NC1CCCCC1)c1ccc(OC)cc1OC (configuration not stated)
IC50 [5]: 14.9 µM (active)

Cc1ccc(Sc2ccc(CO)cc2[N+](=O)[O-])cc1
EC50 [4]: 3.35 µM (active)

CCNc1nc(NCC)n2c(SCC(=O)Nc3cccc(Cl)c3)nnc2n1
IC50 [5]: 16.2 µM (active)

COc1ccc(S(=O)(=O)c2cnc(S)nc2O)cc1Cl
IC50 [5]: 8.64 µM (active)

CCOC(=O)N1CCN(C(=O)c2ccc3c(c2)N(Cc2ccc(F)cc2)CCS3)CC1
IC50 [3]: > 20 µM (inactive)

CC(C)CC1C(=O)N(Cc2cn(CC3CCCCC3)nn2)CCS(=O)(=O)N1Cc1ccc(-c2ccc(F)nc2)cc1 (configuration not stated)
AC50 [19]: 32.8 µM (active) | CC50 [10]: 19.6 µM (active)

CCN(C[C@H]1N[C@@](C)(C(=O)OC)[C@H]2C(=O)N(Cc3ccccc3)C(=O)[C@@H]12)C(=O)Nc1ccccc1
AC50 [11]: 2.92 µM (active) | AC50 [12]: 2.42 µM (active) | AC50 [13]: 3.81 µM (active) | AC50 [14]: 2.56 µM (active)

N#Cc1ccc(NC(=O)COC(=O)C2CCC2)cc1
AC50 [20]: 21.7 µM (active)

COc1cccc(S(=O)(=O)N(C)C[C@H]2Oc3cc(C4=CCCCC4)ccc3S(=O)(=O)N([C@H](C)CO)C[C@H]2C)c1
AC50 [11]: 0.409 µM (active) | AC50 [14]: 2.06 µM (active)

CN1CCc2ccccc2Cc2[nH]c3ccccc3c2CC1
AC50 [11]: 25.6 µM (active) | AC50 [12]: 8.06 µM (active) | AC50 [13]: > 70 µM (inactive)

CCOC(=O)c1cnc2c(C)cccc2c1NCCCN1CCOCC1
AC50 [9]: 16.6 µM (active)
